Our source for the Drug uptake and logP values is ChEMBL document CHEMBL1955774, “Radiosynthesis of [11C]BBAC and [11C]BBPC as potential PET tracers for orexin2 receptors” (Bioorg Med Chem Lett, 2012).

The test system of series [1] is Brain. Put plainly: Drug uptake in anesthetized rhesus monkey brain at 1.5 ug measured for 122 mins by PET analysis. The series is classed as ADME, tissue-based, Macaca mulatta. The settings on record: in vivo.
Series [2] in a line: Partition coefficient, log P of the compound by shake flask method. The series is classed as physicochemical. The settings on record: octanol/water.
Series [3] relates to Brain. Put plainly: Drug uptake in anesthetized rhesus monkey brain at 1.7 ug measured for 122 mins by PET analysis. To be noted: in vivo. The series is classed as ADME, tissue-based, Macaca mulatta.

With `[11CH3]n1c(SCC(=O)N2CCC[C@H]2C(=O)Nc2ccccc2-c2ccccc2)nc2ccccc21`, in the series on Brain [1], the Drug uptake entry is “Not Active”. For the same compound, the log partition coefficient (logP) in series [2] is 3.4.

As for `[11CH3]n1c(CCC(=O)N2CCC[C@H]2C(=O)Nc2ccccc2-c2ccccc2)nc2ccccc21`, in the series on Brain [3], the Drug uptake result was “Not Active”. The logP in series [2] was determined as 2.8.
